{"source": "paper PMC6815936", "about": "“A Pan-Cyclophilin Inhibitor, CRV431, Decreases Fibrosis and Tumor Development in Chronic Liver Disease Models” (The Journal of Pharmacology and Experimental Therapeutics, 2019)", "key": {"[1]": {"molecular_target": "cyclophilins A, B, D, and G", "assay": "Cyclophilin isomerase assay, all isoforms tested", "format": "biochemical", "protocol": "Cyclophilin isomerase activity was measured with an assay described by [Kofron et al. (1991)] with adaptations to 96-well plates. In this assay cyclophilins catalyze cis-to-trans isomerization of a proline peptide bond in a nitroanalide-coupled peptide substrate followed by cleavage of the trans-conformer peptide by α-chymotrypsin, release of the p-nitroaniline chromogen, and quantitation of p-nitroaniline by absorbance at 410 nm. All solutions were pre-equilibrated, and all assays were conducted at 4°C. Plates were preloaded with 5 µl peptide solution consisting of N-succinyl-alanine-alanine-proline-phenylalanine-p-nitroanilide (S7388; Sigma-Aldrich) and 400 mM lithium chloride (310468; Sigma-Aldrich) in anhydrous trifluoroethanol (T63002; Sigma-Aldrich). […] Cis-peptide represented 55% of the peptide isomers, based on initial reaction bursts, and therefore peptide concentration was corrected to 55% of input in subsequent calculations. […] Absorbance measurements with a BMG Polarstar Galaxy plate reader were begun immediately and made at 6-second intervals for 6 minutes. Reaction curves were represented by increases in optical density 410 nm as a function of reaction time. […]"}, "[2]": {"system": "Jurkat activation (NFAT and IL-2 luciferase reporters)", "assay": "Jurkat NFAT and IL-2 luciferase reporter assays taken together", "format": "cell-based, human", "protocol": "The luciferase reporter assays employed Jurkat cells stably transfected with gene constructs consisting of a luciferase gene plus human nuclear factor of activated T cells (NFAT) or interleukin-2 (IL-2) promoter elements (J1621 and J1651; Promega). The NFAT construct contained a DNA binding site only for NFAT, whereas the IL-2 construct contained binding sites for NFAT, nuclear factor κ-light-chain-enhancer of activated B cells, and activating protein-1 transcription factors. Cells were cultured in 96-well plates at 100,000 cells/well in RPMI 1640 medium (11875-093; Thermo Fisher) supplemented with 5% FBS (12483020; Thermo Fisher). Cells were activated either by precoating high protein-binding plates with 3 µg/ml anti-CD3 (UCHT clone) and anti-CD28 (CD28.2 clone) (BioLegend LEAF antibodies) or by adding phorbol myristate acetate (PMA; P8139; Sigma-Aldrich) to 15 ng/ml and A23187 ionophore (C7522; Sigma-Aldrich) to 0.75 µM. […] Cells were harvested after 18 hours of incubation, and luciferase was quantified with Promega Bio-Glo reagent (G7940; Promega) and measurement with a luminescence plate reader. Data were normalized to DMSO controls (100% stimulation) and to wells without antibody or PMA plus A23187 stimulation."}, "[3]": {"system": "human peripheral blood mononuclear cells", "assay": "CFSE-PBMC proliferation", "format": "cell-based", "settings": "highest tested concentration of 10 µM, 3 days", "procedure": "Peripheral blood mononuclear cells (PBMC) were isolated by Ficoll Paque Plus centrifugation (17144003; GE Life Sciences) of venous blood from a healthy human volunteer. Cells were incubated for 5 minutes with 5 µg/ml carboxyfluorescein diacetate succinimidyl ester (C1157; Thermo Fisher) to produce stable intracellular carboxyfluorescein succinimidyl ester (CFSE) labeling (CFSE-PBMC). […] Cells were collected after 3 days of culture incubation, and flow cytometry was used to measure the partitioning of CFSE into daughter cells arising from cell division (discrete cell populations with successively halved CFSE content). Daughter cells as a percentage of all CFSE-labeled cells were normalized to DMSO treatment (100% stimulation) and wells without CD3 antibody coating (nonstimulated)."}, "six human cell types": {"system": "six human cell types", "assay": "Cytotoxicity analysis, resazurin viability assay", "protocol": "CRV431 cytotoxicity was evaluated in cell culture with six human cell types: Jurkat E6.1 lymphocyte cell line (88042803, person; Sigma-Aldrich), HepaRG hepatocyte cell line (HPRGC10, person; Life Technologies), primary renal epithelial cells (CC-2556, unknown gender; Lonza), primary dermal fibroblasts (CC-2511, person; Lonza), primary bronchial smooth muscle cells (CC-2576, person; Lonza), and primary umbilical vein endothelial cells (CC-2519, person; Lonza). Jurkat cells (suspension cell type) were plated at 35,000 cells/well in 96-well plates. All other cell types (adherent cell types) were plated 2500–10,000 cells/well (adherent cell types) in GelCol bovine collagen-coated (5167; Advanced Biomatrix) 96-well Nunc Edge 2.0 evaporation barrier plates (14387223; Thermo Scientific). Cell culture medium and culture conditions followed suppliers’ recommendations. […] Cell viability was assessed at the end of the 3-day culture period using the In Vitro Toxicology Assay (Tox8-1KT; Sigma-Aldrich). In this assay the oxidoreduction indicator dye, resazurin, is colorometrically converted in proportion to the number of viable cells and measured by absorbance or fluorescence. Fluorescence was measured (excitation 540 nm; emission 590 nm) with a BMG Polarstar Galaxy Microplate Reader."}, "NTCP": {"molecular_target": "T1, NTCP (Homo sapiens, UniProt Q14973)", "T1 construct": "expressed in transfected cells", "T1 sequence (Q14973 whole entry)": "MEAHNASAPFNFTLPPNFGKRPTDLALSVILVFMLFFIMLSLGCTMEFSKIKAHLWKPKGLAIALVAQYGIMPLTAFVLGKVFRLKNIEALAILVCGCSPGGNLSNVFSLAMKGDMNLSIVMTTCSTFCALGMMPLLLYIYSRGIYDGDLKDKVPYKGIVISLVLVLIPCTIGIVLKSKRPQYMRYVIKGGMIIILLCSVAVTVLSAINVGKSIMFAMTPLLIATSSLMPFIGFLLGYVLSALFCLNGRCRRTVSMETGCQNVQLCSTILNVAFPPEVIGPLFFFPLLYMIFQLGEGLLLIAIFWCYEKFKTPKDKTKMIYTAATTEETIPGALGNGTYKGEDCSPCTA", "assay": "Drug transporter inhibition, NTCP", "format": "in vitro ADME", "procedure": "(§1) Briefly, PGP and breast cancer resistance protein inhibition was assessed by measuring the bidirectional transport of substrates across cell monolayers in transwell culture plates. Efflux ratios were represented as (apical-to-basal flux)/(basal-to-apical flux), and efflux ratios were plotted relative to CRV431 concentration to derive IC50 values. Bile salt export pump (BSEP) and multidrug resistance protein (MRP)1 inhibition was assessed by measuring substrate accumulation in membrane vesicles prepared from insect Sf9 cells and recombinantly expressing BSEP and MRP2 (Genomembrane). Inhibition of all other transporters was assessed by measuring substrate accumulation in cells recombinantly expressing the transporter. Known inhibitors of each transporter were used as positive controls for the assays. […] Specific, ATP-dependent uptake was determined by subtracting uptake in negative control vesicles and cells not expressing the transporters, and secondly by subtracting uptake in the absence of ATP in the assays. Specific, ATP-dependent uptake was plotted as a function of CRV431 concentrations and fitted to nonlinear regressions to obtain IC50 values."}, "MATE-1": {"molecular_target": "T2, MATE-1 (Homo sapiens, UniProt Q96FL8)", "T2 construct": "expressed in transfected cells", "T2 sequence (Q96FL8 whole entry)": "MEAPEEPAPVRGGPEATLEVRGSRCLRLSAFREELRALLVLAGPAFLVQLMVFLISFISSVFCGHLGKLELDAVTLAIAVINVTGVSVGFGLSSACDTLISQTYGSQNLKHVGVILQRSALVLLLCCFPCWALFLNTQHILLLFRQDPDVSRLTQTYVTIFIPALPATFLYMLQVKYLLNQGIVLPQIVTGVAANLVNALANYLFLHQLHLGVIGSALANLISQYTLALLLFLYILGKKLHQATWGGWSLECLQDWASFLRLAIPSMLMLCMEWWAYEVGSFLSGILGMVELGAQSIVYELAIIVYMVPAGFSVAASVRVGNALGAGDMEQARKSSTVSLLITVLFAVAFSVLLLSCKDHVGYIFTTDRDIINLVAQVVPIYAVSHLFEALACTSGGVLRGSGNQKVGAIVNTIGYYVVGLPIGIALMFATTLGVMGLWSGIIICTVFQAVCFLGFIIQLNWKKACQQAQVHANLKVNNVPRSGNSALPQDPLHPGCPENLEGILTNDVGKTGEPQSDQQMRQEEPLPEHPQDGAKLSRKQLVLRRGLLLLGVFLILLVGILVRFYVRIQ", "assay": "Drug transporter inhibition, MATE-1", "format": "in vitro ADME", "settings": "MATE-1, HEK293", "procedure": "(§2) Inhibition of all other transporters was assessed by measuring substrate accumulation in cells recombinantly expressing the transporter. Known inhibitors of each transporter were used as positive controls for the assays. […] Specific, ATP-dependent uptake was determined by subtracting uptake in negative control vesicles and cells not expressing the transporters, and secondly by subtracting uptake in the absence of ATP in the assays. Specific, ATP-dependent uptake was plotted as a function of CRV431 concentrations and fitted to nonlinear regressions to obtain IC50 values."}, "MATE-2": {"molecular_target": "T3, MATE-2 (Homo sapiens, UniProt Q86VL8)", "T3 construct": "expressed in transfected cells", "assay": "Drug transporter inhibition, MATE-2", "format": "in vitro ADME", "settings": "MATE-2, HEK293", "procedure": "as §2"}, "[4]": {"assay": "CRV431 concentrations in blood and liver, mice", "format": "in vivo, mouse", "settings": "for Liver:Blood [CRV431] Ratio: Mouse", "source_text": "Male and female Sprague–Dawley rats and male C57BL/6 mice from the carbon tetrachloride and NASH studies were used to evaluate CRV431 pharmacokinetics and distribution. […] Terminal whole blood and livers were collected and frozen until drug extraction. Liver samples were homogenized in PBS or 1% formic acid (0.1 g–0.4 g liver sample per ml solvent) with bead-based homogenizers (TissueLyser or Beadruptor). […] Liver CRV431 concentrations were normalized to the masses of the liver samples."}, "BSEP [5]": {"molecular_target": "T4, BSEP (Homo sapiens, UniProt O95342)", "T4 sequence (O95342 whole entry)": "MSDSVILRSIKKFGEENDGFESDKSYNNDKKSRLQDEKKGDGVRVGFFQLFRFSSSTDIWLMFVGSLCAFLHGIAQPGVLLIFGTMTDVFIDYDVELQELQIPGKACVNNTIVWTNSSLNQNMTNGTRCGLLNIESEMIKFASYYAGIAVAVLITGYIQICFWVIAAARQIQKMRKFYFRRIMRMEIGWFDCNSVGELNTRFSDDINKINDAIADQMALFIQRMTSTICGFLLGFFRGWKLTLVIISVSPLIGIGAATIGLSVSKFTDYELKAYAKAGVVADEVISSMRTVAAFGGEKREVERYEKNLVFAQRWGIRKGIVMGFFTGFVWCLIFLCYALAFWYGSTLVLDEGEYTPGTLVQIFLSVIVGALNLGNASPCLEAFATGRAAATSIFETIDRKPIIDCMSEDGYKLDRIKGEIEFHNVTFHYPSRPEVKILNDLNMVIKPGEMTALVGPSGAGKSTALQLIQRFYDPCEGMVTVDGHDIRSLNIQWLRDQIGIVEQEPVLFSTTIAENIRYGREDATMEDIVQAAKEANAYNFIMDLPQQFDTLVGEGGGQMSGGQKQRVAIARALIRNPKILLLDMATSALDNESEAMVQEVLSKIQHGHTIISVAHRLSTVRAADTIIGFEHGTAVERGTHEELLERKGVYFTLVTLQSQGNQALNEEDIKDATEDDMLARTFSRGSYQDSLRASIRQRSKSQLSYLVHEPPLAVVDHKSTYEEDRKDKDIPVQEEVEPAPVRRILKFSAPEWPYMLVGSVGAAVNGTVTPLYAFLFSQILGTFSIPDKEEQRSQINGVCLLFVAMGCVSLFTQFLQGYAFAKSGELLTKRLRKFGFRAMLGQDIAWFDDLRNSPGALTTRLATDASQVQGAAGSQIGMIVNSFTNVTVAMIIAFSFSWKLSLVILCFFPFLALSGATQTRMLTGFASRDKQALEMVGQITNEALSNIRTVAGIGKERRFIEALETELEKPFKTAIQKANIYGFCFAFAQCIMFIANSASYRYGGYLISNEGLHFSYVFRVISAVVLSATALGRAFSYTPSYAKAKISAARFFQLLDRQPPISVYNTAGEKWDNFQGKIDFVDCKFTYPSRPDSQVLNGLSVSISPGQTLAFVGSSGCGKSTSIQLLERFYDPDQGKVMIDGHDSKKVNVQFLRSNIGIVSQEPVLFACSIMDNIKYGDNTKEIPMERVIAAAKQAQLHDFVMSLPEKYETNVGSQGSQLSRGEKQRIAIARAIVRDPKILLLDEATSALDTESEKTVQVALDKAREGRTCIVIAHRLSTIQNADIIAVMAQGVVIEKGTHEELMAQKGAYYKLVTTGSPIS", "procedure": "(§3) Bile salt export pump (BSEP) and multidrug resistance protein (MRP)1 inhibition was assessed by measuring substrate accumulation in membrane vesicles prepared from insect Sf9 cells and recombinantly expressing BSEP and MRP2 (Genomembrane). Inhibition of all other transporters was assessed by measuring substrate accumulation in cells recombinantly expressing the transporter. Known inhibitors of each transporter were used as positive controls for the assays. […] Specific, ATP-dependent uptake was determined by subtracting uptake in negative control vesicles and cells not expressing the transporters, and secondly by subtracting uptake in the absence of ATP in the assays. Specific, ATP-dependent uptake was plotted as a function of CRV431 concentrations and fitted to nonlinear regressions to obtain IC50 values."}, "OATP1B1": {"molecular_target": "OATP1B1 (Homo sapiens, UniProt Q9Y6L6)", "sequence (Q9Y6L6 whole entry)": "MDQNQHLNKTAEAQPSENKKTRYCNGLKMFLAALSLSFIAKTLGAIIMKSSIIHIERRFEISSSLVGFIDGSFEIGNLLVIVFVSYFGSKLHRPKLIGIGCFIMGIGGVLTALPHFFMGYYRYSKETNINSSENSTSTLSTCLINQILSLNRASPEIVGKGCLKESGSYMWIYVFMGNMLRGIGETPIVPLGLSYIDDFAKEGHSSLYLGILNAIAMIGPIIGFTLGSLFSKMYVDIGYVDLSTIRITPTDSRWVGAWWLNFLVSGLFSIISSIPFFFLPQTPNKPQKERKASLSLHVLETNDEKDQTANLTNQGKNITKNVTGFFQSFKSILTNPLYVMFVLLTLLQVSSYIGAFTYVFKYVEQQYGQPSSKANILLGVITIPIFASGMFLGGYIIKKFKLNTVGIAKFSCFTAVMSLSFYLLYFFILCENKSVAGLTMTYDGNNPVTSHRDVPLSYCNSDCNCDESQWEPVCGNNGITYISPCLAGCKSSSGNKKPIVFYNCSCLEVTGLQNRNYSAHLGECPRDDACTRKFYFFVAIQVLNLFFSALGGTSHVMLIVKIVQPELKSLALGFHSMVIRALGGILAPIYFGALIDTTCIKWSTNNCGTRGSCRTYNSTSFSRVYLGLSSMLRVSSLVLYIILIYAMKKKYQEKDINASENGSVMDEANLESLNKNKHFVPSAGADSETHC", "procedure": "as §1"}, "BSEP [6]": {"molecular_target": "T4, BSEP", "assay": "Drug transporter inhibition, BSEP", "settings": "Vesicles", "procedure": "as §3"}, "MRP2": {"molecular_target": "MRP2 (Homo sapiens, UniProt Q92887)", "assay": "Drug transporter inhibition, MRP2", "settings": "MRP2, Vesicles", "procedure": "as §3"}, "OAT1": {"molecular_target": "OAT1 (Homo sapiens, UniProt Q4U2R8)", "sequence (Q4U2R8 whole entry)": "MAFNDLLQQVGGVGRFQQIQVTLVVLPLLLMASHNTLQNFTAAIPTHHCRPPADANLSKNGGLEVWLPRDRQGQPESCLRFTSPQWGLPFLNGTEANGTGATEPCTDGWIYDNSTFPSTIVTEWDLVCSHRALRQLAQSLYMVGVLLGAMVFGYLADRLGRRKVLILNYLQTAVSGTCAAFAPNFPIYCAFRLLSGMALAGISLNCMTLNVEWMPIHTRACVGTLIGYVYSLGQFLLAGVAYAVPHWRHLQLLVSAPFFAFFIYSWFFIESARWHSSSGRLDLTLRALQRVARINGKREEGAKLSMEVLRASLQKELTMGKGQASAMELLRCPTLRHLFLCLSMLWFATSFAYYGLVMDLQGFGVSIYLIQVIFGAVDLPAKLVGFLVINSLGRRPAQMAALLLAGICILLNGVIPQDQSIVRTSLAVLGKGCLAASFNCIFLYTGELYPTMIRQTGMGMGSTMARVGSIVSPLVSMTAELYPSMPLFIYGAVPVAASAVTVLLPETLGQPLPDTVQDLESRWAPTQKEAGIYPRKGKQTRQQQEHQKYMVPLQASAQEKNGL", "assay": "Drug transporter inhibition, OAT1", "settings": "OAT1, HEK293", "procedure": "as §3"}, "OCT2": {"molecular_target": "OCT2 (Homo sapiens, UniProt O15244)", "sequence (O15244 whole entry)": "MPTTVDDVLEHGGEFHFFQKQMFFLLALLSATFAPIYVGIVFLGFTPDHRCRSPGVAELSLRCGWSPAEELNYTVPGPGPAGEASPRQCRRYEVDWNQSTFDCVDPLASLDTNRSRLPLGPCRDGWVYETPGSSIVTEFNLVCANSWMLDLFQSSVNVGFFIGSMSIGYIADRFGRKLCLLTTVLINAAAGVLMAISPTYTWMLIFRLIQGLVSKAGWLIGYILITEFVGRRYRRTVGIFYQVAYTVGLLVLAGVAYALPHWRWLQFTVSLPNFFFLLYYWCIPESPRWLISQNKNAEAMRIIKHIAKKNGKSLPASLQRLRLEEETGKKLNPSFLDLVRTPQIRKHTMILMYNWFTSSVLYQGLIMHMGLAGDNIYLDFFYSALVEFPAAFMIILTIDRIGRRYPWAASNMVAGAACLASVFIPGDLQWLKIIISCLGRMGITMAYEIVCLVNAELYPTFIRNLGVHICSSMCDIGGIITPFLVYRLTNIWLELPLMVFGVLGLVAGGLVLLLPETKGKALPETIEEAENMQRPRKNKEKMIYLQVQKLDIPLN", "assay": "Drug transporter inhibition, OCT2", "settings": "OCT2, HEK293", "procedure": "as §3"}, "OAT3": {"molecular_target": "OAT3 (Homo sapiens, UniProt Q8TCC7)", "sequence (Q8TCC7 whole entry)": "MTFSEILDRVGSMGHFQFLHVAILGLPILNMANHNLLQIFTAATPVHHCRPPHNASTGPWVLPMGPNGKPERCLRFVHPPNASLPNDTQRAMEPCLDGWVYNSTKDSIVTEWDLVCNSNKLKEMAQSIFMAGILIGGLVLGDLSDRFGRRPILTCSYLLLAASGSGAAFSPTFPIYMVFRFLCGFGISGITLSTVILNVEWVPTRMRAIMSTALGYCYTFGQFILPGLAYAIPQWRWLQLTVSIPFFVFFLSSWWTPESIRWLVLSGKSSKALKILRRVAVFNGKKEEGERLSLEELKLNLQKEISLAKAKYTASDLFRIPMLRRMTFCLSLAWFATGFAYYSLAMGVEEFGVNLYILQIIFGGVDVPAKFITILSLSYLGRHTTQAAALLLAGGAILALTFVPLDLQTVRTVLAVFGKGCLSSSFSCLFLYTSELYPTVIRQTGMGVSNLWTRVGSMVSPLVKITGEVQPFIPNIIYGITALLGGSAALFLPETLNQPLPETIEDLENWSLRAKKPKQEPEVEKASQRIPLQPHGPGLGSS", "assay": "Drug transporter inhibition, OAT3", "settings": "OAT3, HEK293", "procedure": "as §3"}, "[7]": {"assay": "Single oral dose pharmacokinetics in rats", "settings": "single oral dose 10 mg/kg", "source_text": "Male and female Sprague–Dawley rats and male C57BL/6 mice from the carbon tetrachloride and NASH studies were used to evaluate CRV431 pharmacokinetics and distribution. […] Terminal whole blood and livers were collected and frozen until drug extraction. Liver samples were homogenized in PBS or 1% formic acid (0.1 g–0.4 g liver sample per ml solvent) with bead-based homogenizers (TissueLyser or Beadruptor). […] Sample and standard compounds were extracted from blood and liver homogenates using a zinc sulfate/methanol precipitation method and quantified by liquid chromatography–electrospray ionization–mass spectrometry, as previously described ([Trepanier et al., 2018]). Liver CRV431 concentrations were normalized to the masses of the liver samples.\nCRV431 pharmacokinetics in rats. […] Whole–blood concentrations of the two compounds were determined at the indicated time points. […] Means and S.D. shown."}, "[8]": {"settings": "mouse, in vivo, po, 50 mg/kg/day"}}, "note": "Read-outs that look alike come from different tables or passages of the source. Square brackets hold non-standard residues; d marks the D form. Peptide text beside a SMILES is read from it. NMeThr(4R-Me,4-(CH2)6NHAc) = CN[C@H](C(=O)O)[C@H](O)[C@H](C)CCCCCCNC(C)=O; NMeL = CN[C@@H](CC(C)C)C(=O)O; NMeV = CN[C@H](C(=O)O)C(C)C; dNMeA = CN[C@H](C)C(=O)O; Abu = CC[C@H](N)C(=O)O", "data": [{"smiles": "CC[C@@H]1NC(=O)[C@H]([C@H](O)[C@H](C)CCCCCCNC(C)=O)N(C)C(=O)[C@H](C(C)C)N(C)C(=O)[C@H](CC(C)C)N(C)C(=O)[C@H](CC(C)C)N(C)C(=O)[C@@H](C)NC(=O)[C@H](C)NC(=O)[C@H](CC(C)C)N(C)C(=O)[C@H](C(C)C)NC(=O)[C@H](CC(C)C)N(C)C(=O)[C@@H](C)N(C)C1=O", "note": "[CRV431] (cyclo(A[dA][NMeL][NMeL][NMeV][NMeThr(4R-Me,4-(CH2)6NHAc)][Abu][dNMeA][NMeL]V[NMeL]))", "values": [{"measurement": "IC50", "setting": "[1]; range over Cyp A, G, read-out: IC50 values, all cyclophilin isoforms", "result": "2.5 to 7.3", "unit": "nM"}, {"measurement": "IC50", "setting": "[1]; range over isoforms A, G (abstract), read-out: Inhibitory constant or IC50 values", "result": "1 to 7", "unit": "nM"}, {"measurement": "suppression of Jurkat activation", "setting": "[2]; CRV431 tested up to 20 µM", "result": "not able to completely suppress activation"}, {"measurement": "immunosuppression potency relative to CsA levels", "setting": "[2]; from the multiple in vitro immunosuppression assays", "result": "≤ 3", "unit": "%"}, {"measurement": "IC50", "setting": "[2]; range over both reporter lines and both stimulations, nonlinear regression, read-out: IC50 values, Jurkat activation", "result": "205 to 311", "unit": "nM"}, {"measurement": "IC50", "setting": "[2]; read-out: estimates of 50% inhibition derived directly from the graphs, range over Jurkat reporter assays", "result": "340 to 500", "unit": "nM"}, {"measurement": "inhibition of proliferation", "setting": "[3]", "result": 40, "unit": "%"}, {"measurement": "CC50", "setting": "six human cell types", "result": 23600, "unit": "nM"}, {"measurement": "lethality", "setting": "six human cell types; at the highest concentrations tested (up to 80 µM), 3 days", "result": 100, "unit": "%"}, {"measurement": "fold lower activity than CsA toward sodium-dependent taurocholic acid cotransporting polypeptide", "setting": "NTCP", "result": 45, "unit": "fold"}, {"measurement": "IC50", "setting": "NTCP; NTCP, HEK293", "result": 45300, "unit": "nM"}, {"measurement": "CRV431 Inhibitory Potency vs. CsA", "setting": "MATE-1", "result": "Same (no inhibition)"}, {"measurement": "CRV431 Inhibitory Potency vs. CsA", "setting": "MATE-2", "result": "Same (no inhibition)"}, {"measurement": "Liver:Blood [CRV431] Ratio", "setting": "[4]; CCl4, 50 mg/kg per day oral, day 42, 4 hours post-dose", "result": "15.4 ± 10.4"}, {"measurement": "Liver:Blood [CRV431] Ratio", "setting": "[4]; NASH, 50 mg/kg per day oral, day 189, 3 hours post-dose", "result": "11.9 ± 8.5"}, {"measurement": "peak blood levels at which CRV431 efficacy occurred in mice", "setting": "[4]; mouse, in vivo", "result": "1.2 to 1.4", "unit": "µg/mL"}, {"measurement": "Blood", "setting": "[4]; [8]", "result": "1.4 ± 1.5", "unit": "µg/mL"}, {"measurement": "Liver", "setting": "[4]; [8]", "result": "11.6 ± 9.0", "unit": "µg/g"}, {"measurement": "IC50", "setting": "BSEP [5]", "result": 1420, "unit": "nM"}, {"measurement": "IC50", "setting": "OATP1B1", "result": 300, "unit": "nM"}, {"measurement": "CRV431 Inhibitory Potency vs. CsA", "setting": "BSEP [6]", "result": 3.4, "unit": "× less"}, {"measurement": "CRV431 Inhibitory Potency vs. CsA", "setting": "MRP2", "result": 2.1, "unit": "× less"}, {"measurement": "CRV431 Inhibitory Potency vs. CsA", "setting": "OAT1", "result": "Same (no inhibition)"}, {"measurement": "IC50", "setting": "OAT1", "result": "> 50000", "unit": "nM"}, {"measurement": "CRV431 Inhibitory Potency vs. CsA", "setting": "OCT2", "result": "Same (no inhibition)"}, {"measurement": "IC50", "setting": "OCT2", "result": "> 50000", "unit": "nM"}, {"measurement": "CRV431 Inhibitory Potency vs. CsA", "setting": "OAT3", "result": ">21", "unit": "× more"}, {"measurement": "IC50", "setting": "OAT3", "result": 473, "unit": "nM"}, {"measurement": "clearance fold difference, CRV431 vs CsA", "setting": "[7]", "result": 3.5, "unit": "fold"}]}]}
